pIC50: −log10 of the molar value. Read-outs that look alike come from different tables or passages of the source.
Key:
Type in all cases: biochemical
[1] = target: T1, Human recombinant PDE2A (hPDE2A) (Homo sapiens, UniProt O00408); test: In vitro assay PDE2A (SPA, 3H-cGMP hydrolysis); settings: for Emax: read-out: hPDE2A Emax; for IC50: read-out: hPDE2A pIC50 (converted)
T1 construct: His tag (inferred from metal chelate purification); made in house; host or cells: Sf9 insect cells (baculovirus)
T1 sequence (O00408 whole entry): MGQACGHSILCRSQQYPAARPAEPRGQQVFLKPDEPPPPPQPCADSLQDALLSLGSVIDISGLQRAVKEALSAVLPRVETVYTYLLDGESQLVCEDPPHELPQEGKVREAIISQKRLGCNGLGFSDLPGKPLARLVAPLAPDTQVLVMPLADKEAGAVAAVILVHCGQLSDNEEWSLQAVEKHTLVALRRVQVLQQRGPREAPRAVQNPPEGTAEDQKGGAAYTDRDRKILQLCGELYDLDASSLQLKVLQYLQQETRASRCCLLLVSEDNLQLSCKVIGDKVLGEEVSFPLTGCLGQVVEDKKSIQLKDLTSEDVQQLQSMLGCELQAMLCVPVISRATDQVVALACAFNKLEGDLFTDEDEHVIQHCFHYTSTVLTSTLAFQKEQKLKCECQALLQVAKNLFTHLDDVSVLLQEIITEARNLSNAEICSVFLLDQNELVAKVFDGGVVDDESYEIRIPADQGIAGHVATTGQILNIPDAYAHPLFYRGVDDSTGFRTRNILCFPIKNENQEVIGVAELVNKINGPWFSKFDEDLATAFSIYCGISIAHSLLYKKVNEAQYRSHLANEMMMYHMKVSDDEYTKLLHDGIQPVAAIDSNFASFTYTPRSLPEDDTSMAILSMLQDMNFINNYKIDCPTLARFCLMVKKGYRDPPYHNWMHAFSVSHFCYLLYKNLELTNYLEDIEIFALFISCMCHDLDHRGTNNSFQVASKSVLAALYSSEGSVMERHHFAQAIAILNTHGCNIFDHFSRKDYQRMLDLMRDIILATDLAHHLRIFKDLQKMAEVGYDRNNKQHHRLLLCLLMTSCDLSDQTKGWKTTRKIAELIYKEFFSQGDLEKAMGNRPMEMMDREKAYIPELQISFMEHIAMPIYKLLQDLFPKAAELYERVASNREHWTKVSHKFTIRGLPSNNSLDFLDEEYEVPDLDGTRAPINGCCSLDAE

[2] = target: T2, Human recombinant PDE3A (hPDE3A) (Homo sapiens, UniProt Q14432); test: In vitro assay PDE3A (SPA, 3H-cAMP hydrolysis); settings: for IC50: hPDE3B pIC50, read-out: pIC50 (converted); for Emax: read-out: hPDE3B Emax, read-out: Emax;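 as to all read-outs here: the method names PDE3A and the table heading PDE3B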
T2 construct: purchased Scottish Biomedical; host or cells: Sf9 insect cells
T2 sequence (Q14432 whole entry): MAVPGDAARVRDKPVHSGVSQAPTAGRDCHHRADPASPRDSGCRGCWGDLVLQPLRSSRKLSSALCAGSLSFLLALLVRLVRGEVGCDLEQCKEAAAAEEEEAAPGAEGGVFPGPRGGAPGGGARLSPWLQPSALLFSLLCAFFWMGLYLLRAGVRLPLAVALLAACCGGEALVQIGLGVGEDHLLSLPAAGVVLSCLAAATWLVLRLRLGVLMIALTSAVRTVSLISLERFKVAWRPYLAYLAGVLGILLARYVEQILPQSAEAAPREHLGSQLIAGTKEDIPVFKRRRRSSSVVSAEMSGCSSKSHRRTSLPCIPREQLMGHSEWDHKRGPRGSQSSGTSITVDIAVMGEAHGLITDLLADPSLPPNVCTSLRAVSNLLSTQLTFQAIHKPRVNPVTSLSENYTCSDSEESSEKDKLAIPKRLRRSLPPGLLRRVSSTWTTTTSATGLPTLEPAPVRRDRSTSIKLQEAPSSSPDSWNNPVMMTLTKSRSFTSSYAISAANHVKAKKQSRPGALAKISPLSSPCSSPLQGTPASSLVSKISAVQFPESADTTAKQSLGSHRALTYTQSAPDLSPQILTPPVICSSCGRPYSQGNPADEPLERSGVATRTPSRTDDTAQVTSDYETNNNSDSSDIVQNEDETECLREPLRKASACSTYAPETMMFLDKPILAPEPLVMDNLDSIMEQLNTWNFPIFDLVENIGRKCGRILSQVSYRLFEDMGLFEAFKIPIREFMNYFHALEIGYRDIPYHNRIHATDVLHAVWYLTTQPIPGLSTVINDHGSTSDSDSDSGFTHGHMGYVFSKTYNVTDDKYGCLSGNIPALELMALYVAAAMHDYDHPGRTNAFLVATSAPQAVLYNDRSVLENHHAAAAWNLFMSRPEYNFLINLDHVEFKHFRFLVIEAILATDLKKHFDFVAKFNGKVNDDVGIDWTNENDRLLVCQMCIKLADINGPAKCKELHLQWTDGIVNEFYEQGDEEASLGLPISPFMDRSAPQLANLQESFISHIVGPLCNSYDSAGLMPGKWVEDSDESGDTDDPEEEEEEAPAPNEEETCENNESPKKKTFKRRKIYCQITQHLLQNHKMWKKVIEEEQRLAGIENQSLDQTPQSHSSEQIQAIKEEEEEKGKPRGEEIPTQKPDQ
Procedure: Human recombinant PDE3A (hPDE3A) was supplied as a partially purified insect cell lysate by Scottish Biomedical, it was cloned from human brain and expressed in Sf9 cells. Tested compounds were dissolved and diluted in 100% DMSO to a concentration 100 fold of the final concentration in the assay. Compound dilutions (0.4 μl) were added in 384 well plates to 20 μl of incubation buffer (50 mM Tris pH 7.8, 8.3 mM MgCl2, 1.7 mM EGTA). 10 μl of hPDE3A enzyme in incubation buffer was added and the reaction was started by addition of 10 μl substrate to a final concentration of 0.4 μM cAMP and 2.4 μCi/ml [^3H]-cAMP. The reaction was incubated for 60 min at room temperature. […] After sedimentation of the beads during 30 min the radioactivity was measured in a Perkin Elmer Topcount scintillation counter and results were expressed as cpm. For blanc values the enzyme was omitted from the reaction and replaced by incubation buffer. Control values were obtained by addition of a final concentration of 1% DMSO instead of compound.

[3] = target: T3, Human recombinant PDE10A (hPDE10A) (Homo sapiens, UniProt Q9Y233); test: In vitro assay PDE10A, human clone (SPA, 3H-cAMP hydrolysis)
T3 construct: His tag (inferred from metal chelate purification); made in house; host or cells: Sf9 insect cells (baculovirus)
T3 sequence (Q9Y233 267-1055): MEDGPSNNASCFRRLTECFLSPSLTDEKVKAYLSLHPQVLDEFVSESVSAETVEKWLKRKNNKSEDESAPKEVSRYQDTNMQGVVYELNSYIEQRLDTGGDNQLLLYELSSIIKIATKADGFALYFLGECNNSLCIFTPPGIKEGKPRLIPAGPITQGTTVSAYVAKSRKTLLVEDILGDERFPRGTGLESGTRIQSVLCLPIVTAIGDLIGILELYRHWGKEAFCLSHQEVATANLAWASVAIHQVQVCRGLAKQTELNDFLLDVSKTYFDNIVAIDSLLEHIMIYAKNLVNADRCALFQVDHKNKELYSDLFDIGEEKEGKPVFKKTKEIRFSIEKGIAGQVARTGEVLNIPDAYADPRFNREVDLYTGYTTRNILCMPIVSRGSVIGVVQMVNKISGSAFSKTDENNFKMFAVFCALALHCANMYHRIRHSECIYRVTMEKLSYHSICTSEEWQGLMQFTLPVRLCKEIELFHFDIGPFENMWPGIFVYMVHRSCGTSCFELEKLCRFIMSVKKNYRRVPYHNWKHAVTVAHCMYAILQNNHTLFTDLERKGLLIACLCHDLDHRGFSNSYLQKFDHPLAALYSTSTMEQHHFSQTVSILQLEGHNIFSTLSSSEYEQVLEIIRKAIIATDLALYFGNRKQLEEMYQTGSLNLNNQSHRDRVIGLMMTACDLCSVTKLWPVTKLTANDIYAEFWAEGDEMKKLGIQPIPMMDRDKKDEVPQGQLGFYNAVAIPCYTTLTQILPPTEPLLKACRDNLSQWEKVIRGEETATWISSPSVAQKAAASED
Procedure: Rat recombinant PDE10A (rPDE10A2) was expressed in Sf9 cells using a recombinant rPDE10A baculovirus construct. […] Tested compounds were dissolved and diluted in 100% DMSO to a concentration 100 fold of the final concentration in the assay. Human recombinant PDE10A ([…]) was expressed in Sf9 cells using a recombinant hPDE10A baculovirus that was made and amplified in house. […] Compound dilutions (0.4 μl) were added in 384 well plates to 20 μl of incubation buffer (50 mM Tris pH 7.8, 8.3 mM MgCl2, 1.7 mM EGTA). 10 μl of rPDE10A or hPDE10A enzyme in incubation buffer was added and the reaction was started by addition of 10 μl substrate to a final concentration of 60 nM cAMP and 0.008 μCi ^3H-cAMP. The reaction was incubated for 60 minutes at room temperature. […] After sedimentation of the beads during 30 minutes the radioactivity was measured in a Perkin Elmer Topcount scintillation counter and results were expressed as cpm. For blanc values the enzyme was omitted from the reaction and replaced by incubation buffer. Control values were obtained by addition of a final concentration of 1% DMSO instead of compound.

[4] = human clone (h), default, read-out: hPDE10A2 Emax
[5] = human clone (h), default, read-out: hPDE10A2 pIC50 (converted)
[6] = human clone by default (no (r) mark), read-out: hPDE10A2 or rPDE10A2 Emax
[7] = human clone by default (no (r) mark), read-out: hPDE10A2 or rPDE10A2 pIC50 (converted)
[8] = human recombinant PDE2A, 10 μM cGMP substrate

| Structure (SMILES) | pIC50 ([1]; hPDE2A pIC50) | pIC50 ([1]; hPDE2A pIC50, human recombinant PDE2A, 10 μM cGMP substrate) | Emax [1] | IC50 [2] | Emax [2] | Emax [3, 4] | IC50 [3, 5] | Emax [3, 6] | IC50 [3, 7] | IC50 [1, 8] | Emax ([1]; human recombinant PDE2A) | IC50 [1] |
| --- | --- | --- | --- | --- | --- | --- | --- | --- | --- | --- | --- | --- |
| Cc1cc([C@H]2CN(C(=O)c3cc(C)c(Cl)c(C)c3)CC[C@@H]2C)n2ncnc2n1 [Compound 218] | 6.69 | 6.69 | 100% | > 10000 nM | 51% | 85% | 2240 nM | 85% | 2240 nM |  |  |  |
| C[C@@H]1CCN(C(=O)c2cnc(N(C)C)nc2)C[C@H]1c1cc(C(F)F)nc2ncnn12 [Compound 174] |  |  | 99% | 1320 nM | 85% | 88% | 575 nM |  |  | 5.25 nM | 99% | 5.25 nM |
| C[C@@H]1CCN(C(=O)c2ccc(F)c(C3CC3)c2)C[C@H]1c1cc(C(F)F)nc2ncnn12 [Compound 135] |  |  | 100% | 2630 nM | 81% | 97% | 191 nM |  |  | 3.31 nM | 100% | 3.31 nM |
| Cc1cc(C(=O)N2CC[C@@H](C)[C@H](c3cc(C(F)F)nc4ncnn34)C2)no1 [Compound 157] |  |  | 99% | > 10000 nM | 33% | 75% | 2570 nM |  |  | 60.3 nM | 99% | 60.3 nM |
| Cc1cc(C(=O)N2CC[C@@H](C)[C@H](c3cc(C(F)F)nc4ncnn34)C2)cc(C)[n+]1[O-] [Compound 402] | 7.58 |  | 100% | > 10000 nM | 28% |  |  | 87% | 1480 nM |  |  |  |
| O=C(c1ccc(F)c(C(F)(F)F)c1)N1[C@H]2CC[C@H](c3cc(C(F)F)nc4ncnn34)[C@@H]1CC2 [Compound 357] |  |  | 98% | > 10000 nM | 34% |  |  | 73% | 3390 nM |  |  | 77.6 nM |
| C[C@@H]1CCN(C(=O)c2c(F)cccc2F)C[C@H]1c1cc(C(F)F)nc2ncnn12 [Compound 149] |  |  | 99% | 5130 nM | 66% | 83% | 1820 nM |  |  | 38.9 nM | 99% | 38.9 nM |
| C[C@@H]1CCN(C(=O)c2ccnc(Cl)c2F)C[C@H]1c1cc(C(F)F)nc2ncnn12 [Compound 55] |  |  | 101% | > 10000 nM | 41% | 83% | 1780 nM |  |  | 12.6 nM | 101% | 12.6 nM |
| Cc1cc([C@@H]2CN(C(=O)c3cc4c(nc3Cl)CCCC4)CC[C@H]2C)n2ncnc2n1 [Compound 12] |  |  | 101% | 1100 nM | 94% | 97% | 363 nM |  |  | 21.4 nM | 101% | 21.4 nM |
| COc1cc(C(=O)N2[C@H]3CC[C@H](c4cc(C(F)F)nc5ncnn45)[C@@H]2CC3)ccc1Cl [Compound 336] |  |  | 101% | 3240 nM | 78% |  |  | 87% | 1910 nM |  |  | 18.6 nM |
| C[C@@H]1CCN(C(=O)c2ccc(Cl)s2)C[C@H]1c1cc(C(F)F)nc2ncnn12 [Compound 180] |  |  | 100% | 5130 nM | 66% | 97% | 174 nM |  |  | 5.01 nM | 100% | 5.01 nM |
| C[C@@H]1CCN(C(=O)c2nccnc2N)C[C@H]1c1cc(C(F)F)nc2ncnn12 [Compound 261] |  |  | 95% | > 10000 nM | 19% | 45% | > 10000 nM | 45% | > 10000 nM |  |  | 363 nM |
| C[C@@H]1CCN(C(=O)c2ccc(F)nc2)C[C@H]1c1cc(C(F)F)nc2ncnn12 [Compound 254] |  |  | 99% | > 10000 nM | 25% | 70% | 3800 nM | 70% | 3800 nM |  |  | 107 nM |

From US10947242B2, “[1,2,4]triazolo[1,5and#8208;A]pyrimidine compounds as PDE2 inhibitors” (Janssen Pharmaceutica NV, priority 2016, dated 2021)
